Assay results published in patent US11208412B2 (DAEGU-GYEONGBUK MEDICAL INNOVATION FOUNDATION, priority 2017, dated 2021).

Biological target: T1, recombinant LRRK2 kinase (Homo sapiens, UniProt Q5S007)
T1 construct: purchased Signal Chem, Richmond, BC, Canada
Assay: LRRK2 kinase inhibition (Kinase-Glo luminescence)
Format: biochemical
Details: IC50 grade; 25 μmol/L ATP, LRRKtide, 30° C. 2 hours; read-out: Enzyme activity LRRK2
Protocol: Upon completion of the reaction, an equal amount of Kinase-Glo (Promega, Madison, Wis.) solution was added thereto, followed by reaction for 40 minutes. A detection solution was added thereto, followed by further reaction at room temperature for 30 minutes. Then, IC50 of kinase was calculated by measuring the amount of luciferase using a microplate ELISA reader (Bio-Tek).

T1 sequence (Q5S007 whole entry): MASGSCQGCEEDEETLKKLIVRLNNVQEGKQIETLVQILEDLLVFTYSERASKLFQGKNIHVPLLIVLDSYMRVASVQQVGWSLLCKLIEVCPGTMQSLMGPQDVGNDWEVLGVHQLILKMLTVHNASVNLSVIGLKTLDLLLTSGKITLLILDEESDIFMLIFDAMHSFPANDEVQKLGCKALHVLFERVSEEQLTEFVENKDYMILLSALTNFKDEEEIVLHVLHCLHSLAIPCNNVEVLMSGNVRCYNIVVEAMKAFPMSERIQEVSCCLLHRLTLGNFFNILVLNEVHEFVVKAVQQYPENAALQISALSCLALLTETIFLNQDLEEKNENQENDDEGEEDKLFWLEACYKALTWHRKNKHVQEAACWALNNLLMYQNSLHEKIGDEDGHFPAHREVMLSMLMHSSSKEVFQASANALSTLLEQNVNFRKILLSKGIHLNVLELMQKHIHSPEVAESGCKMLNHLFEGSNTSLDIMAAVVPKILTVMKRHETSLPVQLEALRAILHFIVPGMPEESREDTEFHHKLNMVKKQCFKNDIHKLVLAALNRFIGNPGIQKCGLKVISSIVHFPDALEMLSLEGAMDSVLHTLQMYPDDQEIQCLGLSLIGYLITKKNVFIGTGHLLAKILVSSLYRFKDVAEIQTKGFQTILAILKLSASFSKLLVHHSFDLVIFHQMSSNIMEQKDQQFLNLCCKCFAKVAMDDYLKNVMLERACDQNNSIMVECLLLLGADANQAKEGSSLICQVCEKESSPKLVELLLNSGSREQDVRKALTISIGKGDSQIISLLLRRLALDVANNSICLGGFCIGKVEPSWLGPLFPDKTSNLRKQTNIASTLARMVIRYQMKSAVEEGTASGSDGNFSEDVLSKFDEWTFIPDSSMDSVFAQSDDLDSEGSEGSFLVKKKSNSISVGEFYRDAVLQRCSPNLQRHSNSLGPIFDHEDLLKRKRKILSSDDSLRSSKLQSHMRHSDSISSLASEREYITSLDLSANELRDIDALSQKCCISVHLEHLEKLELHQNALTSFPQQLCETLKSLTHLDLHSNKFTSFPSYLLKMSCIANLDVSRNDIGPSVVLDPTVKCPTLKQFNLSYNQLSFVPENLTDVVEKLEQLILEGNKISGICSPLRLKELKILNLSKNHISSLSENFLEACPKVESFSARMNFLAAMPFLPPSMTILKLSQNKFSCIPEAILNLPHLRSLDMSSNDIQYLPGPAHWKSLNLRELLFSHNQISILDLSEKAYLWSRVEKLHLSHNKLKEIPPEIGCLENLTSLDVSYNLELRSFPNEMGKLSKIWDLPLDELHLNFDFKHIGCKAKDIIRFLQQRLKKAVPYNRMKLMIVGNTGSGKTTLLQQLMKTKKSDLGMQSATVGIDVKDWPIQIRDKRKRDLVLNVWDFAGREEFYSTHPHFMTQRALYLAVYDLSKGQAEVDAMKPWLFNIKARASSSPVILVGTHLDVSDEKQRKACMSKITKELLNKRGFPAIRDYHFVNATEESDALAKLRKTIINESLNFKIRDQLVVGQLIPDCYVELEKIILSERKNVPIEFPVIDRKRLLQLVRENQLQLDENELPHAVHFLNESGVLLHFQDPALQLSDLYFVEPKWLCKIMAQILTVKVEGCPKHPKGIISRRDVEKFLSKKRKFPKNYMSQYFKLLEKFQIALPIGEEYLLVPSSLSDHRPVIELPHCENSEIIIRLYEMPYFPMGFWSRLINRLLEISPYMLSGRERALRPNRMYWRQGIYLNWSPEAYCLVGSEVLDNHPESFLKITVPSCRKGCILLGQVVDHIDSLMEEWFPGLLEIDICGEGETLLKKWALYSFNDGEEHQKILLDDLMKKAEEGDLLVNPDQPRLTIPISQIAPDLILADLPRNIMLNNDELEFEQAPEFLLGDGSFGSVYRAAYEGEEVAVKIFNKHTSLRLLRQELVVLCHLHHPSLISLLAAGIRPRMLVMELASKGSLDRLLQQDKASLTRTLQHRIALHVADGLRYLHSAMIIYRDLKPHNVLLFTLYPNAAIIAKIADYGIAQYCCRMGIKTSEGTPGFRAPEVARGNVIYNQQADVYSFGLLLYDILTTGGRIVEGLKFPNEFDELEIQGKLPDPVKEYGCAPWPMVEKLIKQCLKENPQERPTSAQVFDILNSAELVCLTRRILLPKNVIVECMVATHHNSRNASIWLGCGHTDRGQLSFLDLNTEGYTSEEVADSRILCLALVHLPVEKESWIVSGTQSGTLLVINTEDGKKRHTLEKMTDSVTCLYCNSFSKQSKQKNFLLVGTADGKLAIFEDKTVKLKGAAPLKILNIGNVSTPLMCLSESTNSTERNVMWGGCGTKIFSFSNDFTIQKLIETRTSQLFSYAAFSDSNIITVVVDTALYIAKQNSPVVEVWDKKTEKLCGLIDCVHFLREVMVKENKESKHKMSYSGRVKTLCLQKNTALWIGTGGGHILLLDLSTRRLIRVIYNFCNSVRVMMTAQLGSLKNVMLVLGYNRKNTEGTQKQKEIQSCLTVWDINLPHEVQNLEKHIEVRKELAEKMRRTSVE

SMILES	IC50 [nM]
COc1cc(C(=O)N2CCOCC2)c(F)cc1Nc1nc(OC2(C)CC2)c2c(C#N)c[nH]c2n1 [Example 97, 2-((5-fluoro-2-methoxy-4-(morpholine-4-carbonyl)phenyl)amino)-4-(1-methylcyclopropoxy)-7H-pyrrolo[2,3-d]pyrimidine-5-carbonitrile]	< 10
COc1cc(C(=O)N2CCO[C@@H](C)C2)ccc1Nc1nc(OC2(C)CC2)c2c(C#N)c[nH]c2n1 [Example 99, (S)-2-((2-methoxy-4-(2-methylmorpholine-4-carbonyl)phenyl)amino)-4-(1-methylcyclopropoxy)-7H-pyrrolo[2,3-d]pyrimidine-5-carbonitrile]	< 10
CCNc1nc(Nc2cn(C(C)(C)C#N)nc2C)nc2[nH]cc(C(F)(F)F)c12 [Example 103, 2-(4-((4-(ethylamino)-5-(trifluoromethyl)-7H-pyrrolo[2,3-d]pyrimidine-2-yl)amino)-3-methyl-1H-pyrazole-1-yl)-2-methylpropanenitrile]	< 10
CCNc1nc(Nc2ccc(C(=O)N3CCOCC3)cc2OC)nc2[nH]cc(C(F)(F)F)c12 [Example 105, (4-((4-(ethylamino)-5-(trifluoromethyl)-7H-pyrrolo[2,3-d]pyrimidine-2-yl)amino)-3-methoxyphenyl)(morpholino)methanone]	10 to 100
CCNc1nc(Nc2ccc(C(=O)N3C[C@@H](C)O[C@@H](C)C3)cc2OC)nc2[nH]cc(C(F)(F)F)c12 [Example 109]	> 100
CCNc1nc(Nc2ccc(C(=O)N3CCC(F)(F)CC3)cc2OC)nc2[nH]cc(C(F)(F)F)c12 [Example 110, (4,4-difluoropiperidine-1-yl)(4-((4-(ethylamino)-5-(trifluoromethyl)-7H-pyrrolo[2,3-d]pyrimidine-2-yl)amino)-3-methoxyphenyl)methanone]	> 100
COc1cc(C(=O)N2CCOCC2)ccc1Nc1nc(NC2CC2)c2c(C(F)(F)F)c[nH]c2n1 [Example 118, (4-((4-(cyclopropylamino)-5-(trifluoromethyl)-7H-pyrrolo[2,3-d]pyrimidine-2-yl)amino)-3-methoxyphenyl)(morpholino)methanone]	< 10
F[C@H]1CN(C2COC2)CC[C@@H]1n1ncc(Nc2nc(OC3CCOC3)c3c(C(F)(F)F)c[nH]c3n2)c1Cl (stereo partly drawn) [Example 127]	10 to 100
CCNc1nc(Nc2cc3c(cc2OC)C(=O)N(C)C3)nc2[nH]cc(C#N)c12 [Example 130, 4-(ethylamino)-2-((6-methoxy-2-methyl-1-oxoisoindol-5-yl)amino)-7H-pyrrolo[2,3-d]pyrimidine-5-carbonitrile]	< 10
CCNc1nc(Nc2cc3c(cc2OC)CN(C)C3=O)nc2[nH]cc(C(F)(F)F)c12 [Example 134, 6-((4-(ethylamino)-5-(trifluoromethyl)-7H-pyrrolo[2,3-d]pyrimidine-2-yl)amino)-5-methoxy-2-methylisoindolin-1-one]	> 100
CCNc1nc(Nc2cc3c(cc2OC)N(C)C(=O)C(C)(C)O3)nc2[nH]cc(C(F)(F)F)c12 [Example 137, 7-((4-(ethylamino)-5-(trifluoromethyl)-7H-pyrrolo[2,3-d]pyrimidine-2-yl)amino)-6-methoxy-2,2,4-trimethyl-2H-benzo[1,4]oxazine-3(4H)-one]	> 100

The next lines start with the values.

IC50 [nM]	SMILES
10 to 100	COc1cc(C(=O)N2CCO[C@H](C)C2)ccc1Nc1nc(OC2(C)CC2)c2c(C#N)c[nH]c2n1 [Example 98, (R)-2-((2-methoxy-4-(2-methylmorpholine-4-carbonyl)phenyl)amino)-4-(1-methylcyclopropoxy)-7H-pyrrolo[2,3d]carbonitrile]
10 to 100	COc1cc(C(=O)N2C[C@@H](C)O[C@@H](C)C2)ccc1Nc1nc(OC2(C)CC2)c2c(C#N)c[nH]c2n1 [Example 100, 2-((4-((2R,6S)-2,6-dimethylmorpholine-4-carbonyl)-2-methoxyphenyl)amino)-4-(1-methylcyclopropoxy)-7H-pyrrolo[2,3-d]pyrimidine-5-carbonitrile]
< 10	CC1(Oc2nc(Nc3cnn([C@H]4CCN(C5COC5)C[C@@H]4F)c3)nc3[nH]cc(C#N)c23)CC1 [Example 101, 2-((1-((3S,4S)-3-fluoro-1-(oxetane-3-yl)piperidine-4-yl)-1H-pyrazole-4-yl)amino)-4-(1-methylcyclopropoxy)-7H-pyrrolo[2,3-d]pyrimidine-5-carbonitrile]
10 to 100	CCNc1nc(Nc2cnn([C@H]3CCN(C4COC4)C[C@@H]3F)c2Cl)nc2[nH]cc(C(F)(F)F)c12 [Example 102, N^2-(5-chloro-1-((3S,4S)-3-fluoro-1-(oxetane-3-yl)piperidine-4-yl)-1H-pyrazole-4-yl)-N^4-ethyl-5-(trifluoromethyl)-7H-pyrrolo[2,3-d]pyrimidine-2,4-diamine]
< 10	CCNc1nc(Nc2ccc(C(=O)N3CCC(N4CCN(C)CC4)CC3)cc2OC)nc2[nH]cc(C(F)(F)F)c12 [Example 106]
< 10	CCNc1nc(Nc2ccc(C(=O)N3CCN(C)CC3)cc2OC)nc2[nH]cc(C(F)(F)F)c12 [Example 107, (4-((4-(ethylamino)-5-(trifluoromethyl)-7H-pyrrolo[2,3-d]pyrimidine-2-yl)amino)-3-methoxyphenyl)(4-methylpiperazine-1-yl)methanone]
10 to 100	CCNc1nc(Nc2ccc(C(=O)N3CCO[C@H](C)C3)cc2OC)nc2[nH]cc(C(F)(F)F)c12 [Example 108, (R)-(4-((4-(ethylamino)-5-(trifluoromethyl)-7H-pyrrolo[2,3-d]pyrimidine-2-yl)amino)-3-methoxyphenyl)(2-methylmorpholino)methanone]
10 to 100	CNc1nc(Nc2ccc(C(=O)N3CCOCC3)cc2OC)nc2[nH]cc(C(F)(F)F)c12 [Example 112, (3-methoxy-4-((4-(methylamino)-5-(trifluoromethyl)-7H-pyrrolo[2,3-d]pyrimidine-2-yl)amino)phenyl)(morpholino)methanone]
10 to 100	F[C@H]1CN(C2COC2)CC[C@@H]1n1ncc(Nc2nc(NC3CC3)c3c(C(F)(F)F)c[nH]c3n2)c1Cl [Example 117, N^2-(5-chloro-1-((3S,4S)-3-fluoro-1-(oxetane-3-yl)piperidine-4-yl)-1H-pyrazole-4-yl)-N^4-cyclopropyl-5-(trifluoromethyl)-7H-pyrrolo[2,3-d]pyrimidine-2,4-diamine]
10 to 100	COc1cc(C(=O)N2CCOCC2)ccc1Nc1nc(OC2CCOC2)c2c(C(F)(F)F)c[nH]c2n1 (stereo not drawn) [Example 124, (3-methoxy-4-((4-((tetrahydrofuran-3-yl)oxy)-5-(trifluoromethyl)-7H-pyrrolo[2,3-d]pyrimidine-2-yl)amino)phenyl)(morpholino)methanone]
> 100	CCNc1nc(Nc2cc3c(cc2Cl)C(=O)N(C)C3)nc2[nH]cc(C#N)c12 [Example 128, 2-((6-chloro-2-methyl-1-oxoisoindol-5-yl)amino)-4-(ethylamino)-7H-pyrrolo[2,3-d]pyrimidine-5-carbonitrile]
10 to 100	CCNc1nc(Nc2cc3c(cc2OC)N(C)C(=O)C(C)(C)O3)nc2[nH]cc(C#N)c12 [Example 131, 4-(ethylamino)-2-((6-methoxy-2,2,4-trimethyl-3-oxo-3,4-dihydro-2H-benzo[b][1,4]oxazine-7-yl)amino)-7H-pyrrolo[2,3-d]pyrimidine-5-carbonitrile]
10 to 100	CCNc1nc(Nc2sc(C(C)(C)C#N)nc2C)nc2[nH]cc(C#N)c12 [Example 132, 2-((2-(2-cyanopropane-2-yl)-4-methylthiazole-5-yl)amino)-4-(ethylamino)-7H-pyrrolo[2,3-d]pyrimidine-5-carbonitrile]
< 10	CCNc1nc(Nc2cc3c(cc2OC)C(=O)N(C)C3)nc2[nH]cc(C(F)(F)F)c12 [Example 133, 5-((4-(ethylamino)-5-(trifluoromethyl)-7H-pyrrolo[2,3-d]pyrimidine-2-yl)amino)-6-methoxy-2-methylisoindolin-1-one]
> 100	CCNc1nc(Nc2cc3c(cc2Cl)C(=O)N(C)C3)nc2[nH]cc(C(F)(F)F)c12 [Example 135, 6-chloro-5-((4-(ethylamino)-5-(trifluoromethyl)-7H-pyrrolo[2,3-d]pyrimidine-2-yl)amino)-2-methyl isoindolin-1-one]
10 to 100	CCNc1nc(Nc2ccc3c(c2)CN(C)C3=O)nc2[nH]cc(C(F)(F)F)c12 [Example 136, 5-((4-(ethylamino)-5-(trifluoromethyl)-7H-pyrrolo[2,3-d]pyrimidine-2-yl)amino)-2-methylisoindolin-1-one]
